Assay: solvent given as SMILES

C(=C(c1ccccc1)c1ccccc1)c1ccc(-c2ccc(-c3nc4c5ccccc5c5ccccc5c4n3-c3cccc(-c4ccc(C=C(c5ccccc5)c5ccccc5)cc4)c3)cc2)cc1
emission maximum (in C1CCOC1): 449 nm

O=S1(=O)C2=C(c3ccc(N(c4ccccc4)c4ccccc4)cc31)C1(C3=C(c4ccccc41)S(=O)(=O)c1cc(N(c4ccccc4)c4ccccc4)ccc13)c1ccccc12
emission maximum (in C1CCOC1): 561 nm | emission maximum (in CC#N): 598 nm | emission maximum (in CCCCCC): 521 nm | emission maximum (in Cc1ccccc1): 543 nm | emission maximum (in ClCCl): 577 nm

COc1ccc(/C=C/C(=O)c2ccccc2O)cc1OC
emission maximum (in C1COCCO1): 425 nm | emission maximum (in CC#N): 436 nm | emission maximum (in CCCO): 495 nm | emission maximum (in CCO): 500 nm | emission maximum (in CN(C)C=O): 473 nm | emission maximum (in CO): 510 nm | emission maximum (in CS(C)=O): 480 nm | emission maximum (in ClC(Cl)Cl): 462 nm | emission maximum (in ClCCl): 460 nm

c1ccc2cc3c4c(ccc3cc2c1)-c1cccc2cccc-4c12
emission maximum (in CCCCCCC): 520 nm

O=Cc1ccc(C#CC(C#Cc2ccc(C=O)o2)=Cc2ccc(C=C(C#Cc3ccc(C=O)o3)C#Cc3ccc(C=O)o3)s2)o1
emission maximum (in ClC(Cl)Cl): 577 nm

COc1cc2cc(-c3ccc(C(=O)OCOC(C)=O)cc3C(=O)OCOC(C)=O)oc2cc1N1CCOCCOCCN(c2cc3oc(-c4ccc(C(=O)OCOC(C)=O)cc4C(=O)OCOC(C)=O)cc3cc2OC)CCOCCOCC1
emission maximum (in O): 546 nm

Cc1cc(-n2c3ccccc3c3ccccc32)ccc1-c1ccc(S(=O)(=O)c2ccccc2)cc1C
emission maximum (in C1CCOC1): 401.77 nm | emission maximum (in CC#N): 450.48 nm | emission maximum (in Cc1ccccc1): 349 nm | emission maximum (in ClCCl): 419.86 nm

Cn1c2ccccc2c2cc(/C=C/C3=[O+][B-](F)(F)OC(/C=C/c4ccc5c(c4)c4ccccc4n5C)=C3c3ccccc3)ccc21
emission maximum (in ClCCl): 636 nm

Cc1ccccc1-c1c2ccc(=[N+]3CCOCC3)cc-2oc2cc(N3CCCCC3)ccc12
emission maximum (in CCO): 582 nm | emission maximum (in ClCCl): 579 nm

COc1ccc(/C=C/C2=CC(c3ccccc3)=[O+][B-](F)(F)O2)cc1
emission maximum (in ClCCl): 506 nm

CC(C)n1c(=O)c2cc3ccc4cccc5ccc(c2c1=O)c3c45
emission maximum (in ClC(Cl)Cl): 457 nm

CC1(C)c2ccccc2N(c2ccc(-c3nnc(-c4ccc(-n5c6ccccc6c6ccccc65)cc4)o3)cc2)c2ccccc21
emission maximum (in Cc1ccccc1): 460 nm | emission maximum (in O=P(c1ccccc1)(c1ccccc1)c1ccccc1Oc1ccccc1P(=O)(c1ccccc1)c1ccccc1): 479 nm

COc1ccc(C2=[N+]3C(=Nc4c(-c5ccc6ccccc6c5)c(Br)c(-c5ccc(OC)cc5)n4[B-]3(F)F)C(c3ccc4ccccc4c3)=C2Br)cc1
emission maximum (in ClCCl): 734 nm

O=c1oc2ccccc2cc1/C=C/c1ccc([N+](=O)[O-])cc1
emission maximum (in CC#N): 539 nm

CCOC(CN1C(=O)C2=C(c3cc4cc(C(C)(C)C)cc(C(C)(C)C)c4o3)N(CC(OCC)OCC)C(=O)C2=C1c1cc2cc(C(C)(C)C)cc(C(C)(C)C)c2o1)OCC
emission maximum (in ClC(Cl)Cl): 594 nm

c1ccc2c(-c3cc4c(ccc5sccc54)s3)cccc2c1
emission maximum (in ClCCl): 405 nm

C[n+]1ccn(CCCCc2ccc3c(c2)c2ccccc2n3-c2cc(C#N)c(C#N)cc2-n2c3ccccc3c3cc(CCCCn4cc[n+](C)c4)ccc32)c1
emission maximum (in CC#N): 572 nm

F[B-]1(F)n2c(/C=C/c3ccc(C(=C(c4ccccc4)c4ccccc4)c4ccccc4)cc3)ccc2C(c2ccc(C(=C(c3ccccc3)c3ccccc3)c3ccccc3)cc2)=C2C=CC(/C=C/c3ccc(C(=C(c4ccccc4)c4ccccc4)c4ccccc4)cc3)=[N+]21
emission maximum (in C1CCOC1): 685 nm

F[B-]1(F)n2c(c3cccc4cccc2c43)=Nc2cccc(Cl)[n+]21
emission maximum (in C1CCOC1): 503 nm | emission maximum (in CC#N): 502 nm | emission maximum (in CCCCCC): 498 nm | emission maximum (in Cc1ccccc1): 503 nm | emission maximum (in ClCCl): 526 nm

COc1ccc(-n2nc(C#N)c(N3CCCC3)n2)cc1OC
emission maximum (in CC#N): 417 nm

O=c1c2cc(F)c(O)cc2oc2cc(O)c(F)cc12
emission maximum (in CCO): 439 nm

CCN(CC)c1ccc(C2=C3C(C)=CC(/C=C/c4ccc(OCC(=O)OC)cc4)=[N+]3[B-](F)(F)n3c(C)cc(C)c32)cc1
emission maximum (in CO): 581 nm

Nc1ccc2c(c1)C(=O)O/C2=C\c1ccc(Cl)cc1
emission maximum (in CC#N): 452.9 nm | emission maximum (in CC(C)=O): 448.83 nm | emission maximum (in CC(C)CO): 483.09 nm | emission maximum (in CC(C)O): 484.97 nm | emission maximum (in CCCO): 484.5 nm | emission maximum (in CCO): 487.33 nm | emission maximum (in CCOC(C)=O): 461.68 nm | emission maximum (in CCOCC): 427.17 nm | emission maximum (in CO): 492.13 nm

CC(C)[Si](C#Cc1c2ccccc2c(C#C[Si](C(C)C)(C(C)C)C(C)C)c2nc3ccccc3nc12)(C(C)C)C(C)C
emission maximum (in CCCCCC): 577 nm | emission maximum (in ClCCl): 609 nm

C(/C=C/Nc1cccc2ccccc12)=[NH+]c1cccc2ccccc12
emission maximum (in CS(C)=O): 527 nm

Cc1cc(N(C)C)ccc1C1=C2C=CC(=[N+](C)C)C=C2[Si](C)(C)c2cc(N(C)C)ccc21
emission maximum (in O): 663 nm

CN(C)c1ccc(-c2cc(-c3ccc(C#N)cc3)nn2C)cc1
emission maximum (in C1CCCCC1): 363 nm | emission maximum (in CC#N): 595 nm | emission maximum (in CCOC(C)=O): 481 nm | emission maximum (in CCOCC): 429 nm | emission maximum (in CN(C)C=O): 590 nm | emission maximum (in Cc1ccccc1): 410 nm | emission maximum (in ClCCl): 499 nm

From the Deep4Chem optical property database
